Test results reported in ChEMBL document CHEMBL1201861, “Genomics of Drug Sensitity in Cancer screening data, Wellcome Trust Sanger Institute”.

Columns and labels:
Assay in all cases: cells
IA-LM = assay type: functional, cell-based, Homo sapiens; details: Homo sapiens, IA-LM;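 note: cell viability assay measuring growth inhibition of human IA-LM cells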
Description: SANGER: Inhibition of human IA-LM cell growth in a cell viability assay.

NB6 = assay type: functional, cell-based, Homo sapiens; details: Homo sapiens, NB6;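 note: growth inhibition of NB6 cells, read out by a cell viability assay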
Description: SANGER: Inhibition of human NB6 cell growth in a cell viability assay.

ALL-PO = assay type: functional, cell-based, Homo sapiens; details: Homo sapiens, ALL-PO;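 note: growth inhibition of ALL-PO cells, read out by a cell viability assay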
Description: SANGER: Inhibition of human ALL-PO cell growth in a cell viability assay.

RKO = assay type: functional, cell-based, Homo sapiens; details: Homo sapiens, RKO;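 note: growth inhibition of human RKO cells, read out with a cell viability assay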
Description: SANGER: Inhibition of human RKO cell growth in a cell viability assay.

A498 = assay type: functional, cell-based, Homo sapiens; details: Homo sapiens, A498;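 note: growth inhibition of human A498 cells, read out with a cell viability assay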
Description: SANGER: Inhibition of human A498 cell growth in a cell viability assay.

IST-SL1 = assay type: functional, cell-based, Homo sapiens; details: Homo sapiens, IST-SL1;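 note: growth inhibition of human IST-SL1 cells, read out with a cell viability assay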
Description: SANGER: Inhibition of human IST-SL1 cell growth in a cell viability assay.

ES8 = assay type: functional, cell-based, Homo sapiens; details: Homo sapiens, ES8;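 note: growth inhibition of human ES8 cells, read out with a cell viability assay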
Description: SANGER: Inhibition of human ES8 cell growth in a cell viability assay.

ES1 = assay type: functional, cell-based, Homo sapiens; details: Homo sapiens, ES1;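 note: growth inhibition of ES1 cells, read out with a cell viability assay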
Description: SANGER: Inhibition of human ES1 cell growth in a cell viability assay.

HH = assay type: functional, cell-based, Homo sapiens; details: Homo sapiens, HH
Description: SANGER: Inhibition of human HH cell growth in a cell viability assay.

GI-ME-N = assay type: functional, cell-based, Homo sapiens; details: Homo sapiens, GI-ME-N;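 note: growth inhibition of human GI-ME-N cells, read out with a cell viability assay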
Description: SANGER: Inhibition of human GI-ME-N cell growth in a cell viability assay.

AM-38 = assay type: functional, cell-based, Homo sapiens; details: Homo sapiens, AM-38;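 note: growth inhibition of AM-38 cells of human origin, read out by a cell viability assay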
Description: SANGER: Inhibition of human AM-38 cell growth in a cell viability assay.

K5 = assay type: functional, cell-based, Homo sapiens; details: Homo sapiens, K5
Description: SANGER: Inhibition of human K5 cell growth in a cell viability assay.

ML-2 = assay type: functional, cell-based, Homo sapiens; details: Homo sapiens, ML-2;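 note: growth inhibition of ML-2 cells, measured with a cell viability readout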
Description: SANGER: Inhibition of human ML-2 cell growth in a cell viability assay.

EW-16 = assay type: functional, cell-based, Homo sapiens; details: Homo sapiens, EW-16;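 note: growth inhibition of human EW-16 cells, read out as cell viability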
Description: SANGER: Inhibition of human EW-16 cell growth in a cell viability assay.

TE-9 = assay type: functional, cell-based, Homo sapiens; details: Homo sapiens, TE-9;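 note: cell growth inhibition, measured with a cell viability readout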
Description: SANGER: Inhibition of human TE-9 cell growth in a cell viability assay.

NCI-H1648 = assay type: functional, cell-based, Homo sapiens; details: Homo sapiens, NCI-H1648;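 note: cell viability assay measuring inhibition of NCI-H1648 cell growth, from the Sanger screening data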
Description: SANGER: Inhibition of human NCI-H1648 cell growth in a cell viability assay.

KGN = assay type: functional, cell-based, Homo sapiens; details: Homo sapiens, KGN;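 note: growth inhibition of KGN cells, read out with a cell viability assay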
Description: SANGER: Inhibition of human KGN cell growth in a cell viability assay.

NMC-G1 = assay type: functional, cell-based, Homo sapiens; details: Homo sapiens, NMC-G1;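 note: growth inhibition of the NMC-G1 cell line, measured with a cell viability read-out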
Description: SANGER: Inhibition of human NMC-G1 cell growth in a cell viability assay.

A4-Fuk = assay type: functional, cell-based, Homo sapiens; details: Homo sapiens, A4-Fuk;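 note: growth inhibition of A4-Fuk cells, read out by a cell viability assay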
Description: SANGER: Inhibition of human A4-Fuk cell growth in a cell viability assay.

LB2241-RCC = assay type: functional, cell-based, Homo sapiens; details: Homo sapiens, LB2241-RCC;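 note: cell viability assay measuring how strongly the cultured human renal carcinoma line is prevented from growing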
Description: SANGER: Inhibition of human LB2241-RCC cell growth in a cell viability assay.

A388 = assay type: functional, cell-based, Homo sapiens; details: Homo sapiens, A388;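 note: growth inhibition of human A388 cells, read out with a cell viability assay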
Description: SANGER: Inhibition of human A388 cell growth in a cell viability assay.

SF-126 = assay type: functional, cell-based, Homo sapiens; details: Homo sapiens, SF-126;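 note: growth inhibition of human SF126 cells, read out with a cell viability assay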
Description: SANGER: Inhibition of human SF126 cell growth in a cell viability assay.

TGW = assay type: functional, cell-based, Homo sapiens; details: Homo sapiens, TGW;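 note: growth inhibition of human TGW cells, read out with a cell viability assay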
Description: SANGER: Inhibition of human TGW cell growth in a cell viability assay.

EW-3 = assay type: functional, cell-based, Homo sapiens; details: Homo sapiens, EW-3;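 note: cell viability assay read-out, IC50 reflects inhibition of growth of the EW-3 cells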
Description: SANGER: Inhibition of human EW-3 cell growth in a cell viability assay.

NCI-H1650 = assay type: functional, cell-based, Homo sapiens; details: Homo sapiens, NCI-H1650;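 note: growth inhibition of human NCI-H1650 cells measured by a cell viability assay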
Description: SANGER: Inhibition of human NCI-H1650 cell growth in a cell viability assay.

HT-144 = assay type: functional, cell-based, Homo sapiens; details: Homo sapiens, HT-144
Description: SANGER: Inhibition of human HT-144 cell growth in a cell viability assay.

NCI-H209 = assay type: functional, cell-based, Homo sapiens; details: Homo sapiens, NCI-H209;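 note: growth inhibition of human NCI-H209 cells, measured by a cell viability assay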
Description: SANGER: Inhibition of human NCI-H209 cell growth in a cell viability assay.

LB1047-RCC = assay type: functional, cell-based, Homo sapiens; details: Homo sapiens, LB1047-RCC;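 note: inhibition of cell growth, determined with a cell viability assay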
Description: SANGER: Inhibition of human LB1047-RCC cell growth in a cell viability assay.

Becker = assay type: functional, cell-based, Homo sapiens; details: Homo sapiens, Becker;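 note: growth inhibition of Becker cells, read out with a cell viability assay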
Description: SANGER: Inhibition of human Becker cell growth in a cell viability assay.

GR-ST = assay type: functional, cell-based, Homo sapiens; details: Homo sapiens, GR-ST
Description: SANGER: Inhibition of human GR-ST cell growth in a cell viability assay.

SW 962 = assay type: functional, cell-based, Homo sapiens; details: Homo sapiens, SW 962;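 note: growth inhibition of human SW962 cells, read out by a cell viability assay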
Description: SANGER: Inhibition of human SW962 cell growth in a cell viability assay.

COLO-829 = assay type: functional, cell-based, Homo sapiens; details: Homo sapiens, COLO-829
Description: SANGER: Inhibition of human COLO-829 cell growth in a cell viability assay.

NCI-H1092 = assay type: functional, cell-based, Homo sapiens; details: Homo sapiens, NCI-H1092;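 note: cell growth inhibition measured with a cell viability assay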
Description: SANGER: Inhibition of human NCI-H1092 cell growth in a cell viability assay.

HCC1187 = assay type: functional, cell-based, Homo sapiens; details: Homo sapiens, HCC1187;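 note: growth inhibition of HCC1187 cells, read out with a cell viability assay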
Description: SANGER: Inhibition of human HCC1187 cell growth in a cell viability assay.

NCI-H82 = assay type: functional, cell-based, Homo sapiens; details: Homo sapiens, NCI-H82;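 note: growth inhibition of NCI-H82 cells, measured with a cell viability readout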
Description: SANGER: Inhibition of human NCI-H82 cell growth in a cell viability assay.

SHP77 = assay type: functional, cell-based, Homo sapiens, SHP-77; details: Homo sapiens, SHP77;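 note: growth inhibition of human SHP-77 cells measured by a cell viability assay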
Description: SANGER: Inhibition of human SHP-77 cell growth in a cell viability assay.

DOHH-2 = assay type: functional, cell-based, Homo sapiens; details: Homo sapiens, DOHH-2;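 note: growth inhibition of human DOHH-2 cells, read out with a cell viability assay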
Description: SANGER: Inhibition of human DOHH-2 cell growth in a cell viability assay.

EW-13 = assay type: functional, cell-based, Homo sapiens; details: Homo sapiens, EW-13;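 note: growth inhibition of EW-13 cells, read out with a cell viability assay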
Description: SANGER: Inhibition of human EW-13 cell growth in a cell viability assay.

ETK-1 = assay type: functional, cell-based, Homo sapiens; details: Homo sapiens, ETK-1;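 note: growth inhibition of human ETK-1 cells, read out with a cell viability assay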
Description: SANGER: Inhibition of human ETK-1 cell growth in a cell viability assay.

KM-H2 = assay type: functional, cell-based, Homo sapiens; details: Homo sapiens, KM-H2;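 note: growth inhibition of KM-H2 cells, read out by a cell viability assay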
Description: SANGER: Inhibition of human KM-H2 cell growth in a cell viability assay.

GOTO = assay type: functional, cell-based, Homo sapiens; details: Homo sapiens, GOTO;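 note: growth inhibition of GOTO cells, read out by a cell viability assay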
Description: SANGER: Inhibition of human GOTO cell growth in a cell viability assay.

SK-N-DZ = assay type: functional, cell-based, Homo sapiens; details: Homo sapiens, SK-N-DZ;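 note: growth inhibition of the cancer cell line, read out through a viability assay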
Description: SANGER: Inhibition of human SK-N-DZ cell growth in a cell viability assay.

HCE-4 = assay type: functional, cell-based, Homo sapiens; details: Homo sapiens, HCE-4;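 note: cell viability assay measuring inhibition of growth in the human HCE-4 cell line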
Description: SANGER: Inhibition of human HCE-4 cell growth in a cell viability assay.

D-502MG = assay type: functional, cell-based, Homo sapiens; details: Homo sapiens, D-502MG
Description: SANGER: Inhibition of human D-502MG cell growth in a cell viability assay.

ES7 = assay type: functional, cell-based, Homo sapiens; details: Homo sapiens, ES7;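 note: growth inhibition of cultured human ES7 cells, read out as cell viability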
Description: SANGER: Inhibition of human ES7 cell growth in a cell viability assay.

HL-60 = assay type: functional, cell-based, Homo sapiens; details: Homo sapiens, HL-60;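 note: growth inhibition of human HL-60 cells, read out with a cell viability assay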
Description: SANGER: Inhibition of human HL-60 cell growth in a cell viability assay.

EM-2 = assay type: functional, cell-based, Homo sapiens; details: Homo sapiens, EM-2;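 note: growth inhibition of EM-2 cells, read out with a cell viability assay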
Description: SANGER: Inhibition of human EM-2 cell growth in a cell viability assay.

CP66-MEL = assay type: functional, cell-based, Homo sapiens; details: Homo sapiens, CP66-MEL;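 note: growth inhibition of CP66-MEL cells determined in a cell viability assay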
Description: SANGER: Inhibition of human CP66-MEL cell growth in a cell viability assay.

JVM-3 = assay type: functional, cell-based, Homo sapiens; details: Homo sapiens, JVM-3;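 note: growth inhibition of human JVM-3 cells, read out with a cell viability assay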
Description: SANGER: Inhibition of human JVM-3 cell growth in a cell viability assay.

With CC(C)CCN1c2nc(Nc3cc(F)c(O)c(F)c3)ncc2N(C)C(=O)C1C (stereo not given) the IC50 (IA-LM) was > 5000 nM, the IC50 (NB6) was 2460 nM and the IC50 (ALL-PO) was > 5000 nM. The IC50 (RKO) was 4.73 µM, the IC50 (A498) was > 5000 nM and the IC50 (IST-SL1) was 846 nM. For the same compound, the IC50 (ES8) was 1880 nM, the IC50 (ES1) was > 5000 nM and the IC50 (HH) was 2800 nM. The IC50 (GI-ME-N) was > 5000 nM, the IC50 (AM-38) was > 5000 nM and the IC50 (K5) was > 5000 nM. The IC50 (ML-2) was 856 nM, the IC50 (EW-16) was > 5000 nM and the IC50 (TE-9) was 2170 nM. The IC50 (NCI-H1648) was > 5000 nM, the IC50 (KGN) was > 5000 nM and the IC50 (NMC-G1) was > 5000 nM. For the same compound, the IC50 (A4-Fuk) was > 5000 nM, the IC50 (LB2241-RCC) was 3690 nM and the IC50 (A388) was > 5000 nM. The IC50 (SF-126) was > 5000 nM, the IC50 (TGW) was 1050 nM and the IC50 (EW-3) was 35.8 nM. For the same compound, the IC50 (NCI-H1650) was > 5000 nM, the IC50 (HT-144) was > 5000 nM and the IC50 (NCI-H209) was 768 nM. For the same compound, the IC50 (LB1047-RCC) was 4.1 µM, the IC50 (Becker) was 2660 nM and the IC50 (GR-ST) was > 5000 nM. The IC50 (SW 962) was > 5000 nM, the IC50 (COLO-829) was 3670 nM and the IC50 (NCI-H1092) was > 5000 nM. For the same compound, the IC50 (HCC1187) was > 5000 nM, the IC50 (NCI-H82) was > 5000 nM and the IC50 (SHP77) was > 5000 nM. For the same compound, the IC50 (DOHH-2) was > 5000 nM, the IC50 (EW-13) was > 5000 nM and the IC50 (ETK-1) was 4.36 µM. For the same compound, the IC50 (KM-H2) was > 5000 nM, the IC50 (GOTO) was 3280 nM and the IC50 (SK-N-DZ) was > 5000 nM. For the same compound, the IC50 (HCE-4) was > 5000 nM, the IC50 (D-502MG) was 3070 nM and the IC50 (ES7) was 916 nM. The IC50 (HL-60) was 884 nM, the IC50 (EM-2) was 2920 nM and the IC50 (CP66-MEL) was > 5 µM. It also gave an IC50 (JVM-3) of 3070 nM.

CC1(C)CNc2cc(NC(=O)c3cccnc3NCc3ccncc3)ccc21 [MOTESANIB] was tested, and the IC50 (IA-LM) was > 2000 nM, the IC50 (NB6) was > 2000 nM and the IC50 (ALL-PO) was > 2000 nM. For the same compound, the IC50 (RKO) was > 2 µM, the IC50 (A498) was > 2000 nM and the IC50 (IST-SL1) was > 2000 nM. The IC50 (ES8) was > 2000 nM, the IC50 (ES1) was > 2000 nM and the IC50 (HH) was > 2000 nM. The IC50 (GI-ME-N) was > 2000 nM, the IC50 (AM-38) was > 2000 nM and the IC50 (K5) was > 2000 nM. For the same compound, the IC50 (ML-2) was > 2000 nM, the IC50 (EW-16) was > 2000 nM and the IC50 (TE-9) was > 2000 nM. For the same compound, the IC50 (NCI-H1648) was 686 nM, the IC50 (KGN) was > 2000 nM and the IC50 (NMC-G1) was > 2000 nM. The IC50 (A4-Fuk) was > 2000 nM, the IC50 (LB2241-RCC) was > 2000 nM and the IC50 (A388) was > 2000 nM. The IC50 (SF-126) was > 2000 nM, the IC50 (TGW) was > 2000 nM and the IC50 (EW-3) was > 2000 nM. For the same compound, the IC50 (NCI-H1650) was > 2000 nM, the IC50 (HT-144) was > 2000 nM and the IC50 (NCI-H209) was > 2000 nM. For the same compound, the IC50 (LB1047-RCC) was > 2 µM, the IC50 (Becker) was > 2000 nM and the IC50 (GR-ST) was > 2000 nM. The IC50 (SW 962) was > 2000 nM, the IC50 (COLO-829) was > 2000 nM and the IC50 (NCI-H1092) was > 2000 nM. The IC50 (HCC1187) was > 2000 nM, the IC50 (NCI-H82) was > 2000 nM and the IC50 (SHP77) was > 2000 nM. For the same compound, the IC50 (DOHH-2) was > 2000 nM, the IC50 (EW-13) was > 2000 nM and the IC50 (ETK-1) was > 2 µM. The IC50 (KM-H2) was > 2000 nM, the IC50 (GOTO) was > 2000 nM and the IC50 (SK-N-DZ) was 549 nM. For the same compound, the IC50 (HCE-4) was > 2000 nM, the IC50 (D-502MG) was > 2000 nM and the IC50 (ES7) was > 2000 nM. For the same compound, the IC50 (HL-60) was > 2000 nM, the IC50 (EM-2) was > 2000 nM and the IC50 (JVM-3) was > 2000 nM.

With CCN(CC)CCCCNc1ncc2cc(-c3cc(OC)cc(OC)c3)c(NC(=O)NC(C)(C)C)nc2n1 [PD-173074] the IC50 (IA-LM) was > 2000 nM, the IC50 (NB6) was > 2000 nM and the IC50 (ALL-PO) was > 2000 nM. The IC50 (RKO) was > 2 µM, the IC50 (A498) was > 2000 nM and the IC50 (IST-SL1) was > 2000 nM. For the same compound, the IC50 (ES8) was > 2000 nM, the IC50 (ES1) was > 2000 nM and the IC50 (HH) was > 2000 nM. For the same compound, the IC50 (GI-ME-N) was > 2000 nM, the IC50 (AM-38) was > 2000 nM and the IC50 (K5) was > 2000 nM. For the same compound, the IC50 (ML-2) was > 2000 nM, the IC50 (EW-16) was > 2000 nM and the IC50 (TE-9) was > 2000 nM. The IC50 (NCI-H1648) was > 2000 nM, the IC50 (KGN) was > 2000 nM and the IC50 (NMC-G1) was > 2000 nM. For the same compound, the IC50 (A4-Fuk) was > 2000 nM, the IC50 (LB2241-RCC) was > 2000 nM and the IC50 (A388) was > 2000 nM. For the same compound, the IC50 (SF-126) was > 2000 nM, the IC50 (TGW) was > 2000 nM and the IC50 (EW-3) was > 2000 nM. For the same compound, the IC50 (NCI-H1650) was > 2000 nM, the IC50 (HT-144) was > 2000 nM and the IC50 (NCI-H209) was > 2000 nM. The IC50 (LB1047-RCC) was > 2 µM, the IC50 (Becker) was > 2000 nM and the IC50 (GR-ST) was > 2000 nM. The IC50 (SW 962) was 790 nM, the IC50 (COLO-829) was > 2000 nM and the IC50 (NCI-H1092) was > 2000 nM. The IC50 (HCC1187) was > 2000 nM, the IC50 (NCI-H82) was > 2000 nM and the IC50 (SHP77) was > 2000 nM. For the same compound, the IC50 (DOHH-2) was > 2000 nM, the IC50 (EW-13) was > 2000 nM and the IC50 (ETK-1) was > 2 µM. The IC50 (KM-H2) was > 2000 nM, the IC50 (GOTO) was > 2000 nM and the IC50 (SK-N-DZ) was > 2000 nM. For the same compound, the IC50 (HCE-4) was > 2000 nM, the IC50 (D-502MG) was > 2000 nM and the IC50 (ES7) was > 2000 nM. The IC50 (HL-60) was > 2000 nM, the IC50 (EM-2) was > 2000 nM and the IC50 (JVM-3) was > 2000 nM.
